Measured values reported in ChEMBL document CHEMBL5120927, “LEGO-Lipophosphonoxins: A Novel Approach in Designing Membrane Targeting Antimicrobials” (J Med Chem, 2022).
Activity calls are given as the source filed them. No cut-off for these calls is given here.

Columns and labels:
Pseudomonas aeruginosa [1] = test: Antibacterial activity against Pseudomonas aeruginosa ATCC 27853 = CCM 3955 assessed as inhibition of bacterial growth incubated for 24 hrs by microdilution assay; type: functional
[2] = Hemolytic activity in human RBC assessed as haemoglobin release measured after 3 hr; type: toxicity, cell-based, Erythrocyte; settings: red blood cells (erythrocytes)
Pseudomonas aeruginosa [3] = test: Antibacterial activity against multidrug-resistant Pseudomonas aeruginosa assessed as reduction in microbial growth incubated for 24 hrs by microdilution assay; type: functional
Staphylococcus aureus [4] = test: Antibacterial activity against wild type Staphylococcus aureus 4482/A assessed as reduction in microbial growth incubated for 24 hrs by microdilution assay; type: functional
Staphylococcus aureus [5] = test: Antibacterial activity against wild type Staphylococcus aureus 4566/A assessed as reduction in microbial growth incubated for 24 hrs by microdilution assay; type: functional
Staphylococcus aureus [6] = test: Antibacterial activity against wild type Staphylococcus aureus 4679/B assessed as reduction in microbial growth incubated for 24 hrs by microdilution assay; type: functional
Staphylococcus aureus [7] = test: Antibacterial activity against wild type Staphylococcus aureus 4502/A assessed as reduction in microbial growth incubated for 24 hrs by microdilution assay; type: functional
Staphylococcus aureus [8] = test: Antibacterial activity against wild type Staphylococcus aureus 4515/A assessed as reduction in microbial growth incubated for 24 hrs by microdilution assay; type: functional
Staphylococcus aureus [9] = test: Antibacterial activity against wild type Staphylococcus aureus 4968/C assessed as reduction in microbial growth incubated for 24 hrs by microdilution assay; type: functional
Pseudomonas aeruginosa [10] = test: Antibacterial activity against Pseudomonas aeruginosa assessed as reduction in microbial growth measured after 20 cycles by microdilution assay; type: functional; settings: time 24 hrs
Cell membrane [11] = test: Induction of cell envelope damage in Staphylococcus aureus assessed as loss of cell integrity at 8 mg/L measured after 8 hrs by scanning electron microscope analysis; type: subcellular
Cell membrane [12] = test: Induction of cell envelope damage in Staphylococcus aureus assessed as membranous nanotubes extrude from dying/dead cells at 8 mg/L measured after 8 hrs by scanning electron microscope analysis
[13] = Cytotoxicity against human HepG2 cells assessed as reduction in cell viability; type: toxicity, cell-based
[14] = Toxicity in human cornea epidermis model assessed as eye irritation incubated for 42 hrs; type: tissue-based
Staphylococcus aureus [15] = test: microbe, parasite or virus in culture; settings: 4862/C, 24 h
Description: Antibacterial activity against wild type Staphylococcus aureus 4862/C assessed as reduction in microbial growth incubated for 24 hrs by microdilution assay

Compound: CCCCCCCCOP(=O)(CCN(CCCN)CCCN)OCCCCCCOP(=O)(CCN(CCCN)CCCN)OCCCCCCCC.Cl.Cl.Cl.Cl.Cl.Cl (stereo not given)
- MIC (Pseudomonas aeruginosa [1]): 2 µg/mL
- HC50 at 3 h [2]: 162 µg/mL
- MIC (Pseudomonas aeruginosa [3]): 2 µg/mL
- MIC (Staphylococcus aureus [4]): 0.5 µg/mL
- MIC (Staphylococcus aureus [5]): 0.5 µg/mL
- MIC (Staphylococcus aureus [6]): 0.5 µg/mL
- MIC (Staphylococcus aureus [7]): 1 µg/mL
- MIC (Staphylococcus aureus [8]): 1 µg/mL
- MIC (Staphylococcus aureus [9]): 1 µg/mL
- fold change (FC) (Pseudomonas aeruginosa [10]): 32
- Activity (Cell membrane [11]): Active
- Activity (Cell membrane [12]): Active
- CC50 [13]: 33.1 µM
- Activity [14]: Non-Toxic
- MIC (Staphylococcus aureus [15]): 0.5 µg/mL
